{"source": "patent US10287337B2", "about": "(priority 2015, dated 2019)", "key": {"[1]": {"test_system": "paw incision-induced postoperative pain in rats", "assay": "Paw incision-induced postoperative pain model, mechanical pain threshold", "type": "in vivo, rat", "text": "A clinically applicable incision model in rodents is a hind-paw deep incision that produces a robust mechanical and cold allodynia, and thermal hyperalgesia (Pogatzki et al., 2003; Xu and Brennan, 2010). Male rats (Sprague-Dawley, 250-260 g, Harlan) used (n=8/group) were anesthetized with 2.5% isoflurane and the skin of the dorsolateral hindpaw surface were prepped by first depilitating it (using Nair), followed by rinsing and application of povidone-iodine. Afterwards, a 5 mm longitudinal incision was made near the hairy/glabrous border though the skin and subcutaneous fascia of the left hindpaw as described by (Pogatzki et al., 2003; Xu and Brennan, 2010). After briefly elevating the underlying muscle with curved forceps the wound is closed with a single nylon (8-0) mattress stitch.\nPre-surgery (baseline) and 24 hours after the surgery, the mechanical allodynia of the incision hindpaws of the rats were assessed using von Frey monofilaments with an up/down procedure (Chaplan et al., 1994). […] Mechanical pain thresholds were measured at 0.5, 1, 2, 3, 4, 5 and 6 hours post-intradermal injection."}, "[2]": {"test_system": "spared nerve injury-induced neuropathic pain in rats", "assay": "Spared nerve injury (SNI)-induced neuropathic pain model, thermal and mechanical pain thresholds", "type": "in vivo, rat", "conditions": "50 μL", "description": "Of the three branches of the sciatic nerve the tibial and common peroneal nerves were cut and ligated leaving the sural nerve intact. Pre-surgery baselines (BL, 100%) of the thermal and mechanical pain thresholds of the ipsilateral hindpaws were measured using the Hargreaves thermal stimulator (6.0 A with a surface temperature of 30° C.; Hargreaves et al., 1988) and von Frey hair monofilaments (up-down method, Chaplan et al., 1994). […] All drug testing was conducted with this post-SNI period.\nThe rat recovered from anesthesia within a few minutes and the thermal and mechanical pain thresholds were determined at 0.5, 1, 2, 3, 4, 5 and 6 hour after the treatment using the methods described above.\nUsing the same test protocol in a different cohort of SNI rats, novel AFA-peptide 3 (0.1, 1 and 3 μM, each 50 μL) or the vehicle (50 μL) was injected into the ipsilateral hindpaws under a brief and light anesthesia condition (with 2.5% isoflurane). The thermal and mechanical pain thresholds were determined at 0.5, 1, 2, 3, 4, 5 and 6 hour after the treatment. […]"}, "[3]": {"conditions": "intradermal injection 1 μM, 50 μL, 24 hours after incision"}, "[4]": {"conditions": "prevention: injection 1 μM, 50 μL just prior to closing of the wound"}, "[5]": {"conditions": "daily intradermal injection 1 μM, 10 consecutive days"}}, "data": [{"substance": "H-NFVPTNVGPFAF-NH2 [AFA-peptide 3, NH2-N-F-V-P-T-N-V-G-P-F-A-F-CONH2]", "values": [{"measurement": "duration of action", "setting": "[1]; [3]", "value": "around 6 hours"}, {"measurement": "mechanical pain threshold (in words)", "setting": "[1]; [3]", "value": "significantly increased"}, {"measurement": "duration of action", "setting": "[1]; [4]", "value": 24, "unit": "h"}, {"measurement": "mechanical pain thresholds vs vehicle (in words)", "setting": "[1]; [4]", "value": "significantly increased mechanical pain thresholds"}, {"measurement": "onset of analgesic effect post treatment", "setting": "[1]; prevention: injection just prior to closing of the wound, second timepoint assessed", "value": 1, "unit": "h"}, {"measurement": "analgesic effect on repeated dosing (in words)", "setting": "[2]; [5]", "value": "consistent analgesic effects"}, {"measurement": "tolerance on repeated dosing (in words)", "setting": "[2]; [5]", "value": "did not cause tolerance"}, {"measurement": "thermal and mechanical pain thresholds (in words)", "setting": "[2]; local intradermal injection into SNI ipsilateral hindpaw, 0.5-6 hour after treatment, vs vehicle", "value": "produced analgesic effects, particularly on thermal pain in a dose-related manner"}]}]}
